Measured values from ChEMBL document CHEMBL5338751, “Discovery of the First-in-Class Intestinal Restricted FXR and FABP1 Dual Modulator ZLY28 for the Treatment of Nonalcoholic Fatty Liver Disease” (J Med Chem, 2023).
pEC50, pIC50: −log10 of the molar value. Calls of active or inactive are those of the source. The calls are words filed in the database; no cut-off is given here.

What was measured:
[1] = target: T1, Peroxisome proliferator-activated receptor alpha (Homo sapiens, UniProt Q07869); test: Agonist activity at pBIND-PPARalpha (unknown origin) transfected in HepG2 cells incubated for 18 hrs by renilla/firefly based dual-glo luciferase assay; format: cell-based
T1 sequence (Q07869 whole entry): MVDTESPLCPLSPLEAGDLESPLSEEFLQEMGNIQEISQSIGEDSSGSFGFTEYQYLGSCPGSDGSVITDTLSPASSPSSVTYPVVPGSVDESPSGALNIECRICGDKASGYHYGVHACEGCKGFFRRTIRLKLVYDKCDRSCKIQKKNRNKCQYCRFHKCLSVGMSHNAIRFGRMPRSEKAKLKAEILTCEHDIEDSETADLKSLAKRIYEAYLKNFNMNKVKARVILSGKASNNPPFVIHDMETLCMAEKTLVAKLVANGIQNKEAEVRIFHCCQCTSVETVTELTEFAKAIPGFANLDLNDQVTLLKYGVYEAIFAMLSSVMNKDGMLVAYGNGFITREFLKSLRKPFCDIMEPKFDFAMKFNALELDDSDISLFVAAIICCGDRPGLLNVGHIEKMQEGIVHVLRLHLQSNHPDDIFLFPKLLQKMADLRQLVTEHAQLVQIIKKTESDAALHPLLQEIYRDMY

[2] = target: Fatty acid-binding protein, adipocyte (Homo sapiens, UniProt P15090); test: Displacement of 8-anilino-1-naphthalene-sulfonic acid from FABP4 (unknown origin) incubated for 3 mins by fluorescence based assay
Sequence of Fatty acid-binding protein, adipocyte (P15090 whole entry): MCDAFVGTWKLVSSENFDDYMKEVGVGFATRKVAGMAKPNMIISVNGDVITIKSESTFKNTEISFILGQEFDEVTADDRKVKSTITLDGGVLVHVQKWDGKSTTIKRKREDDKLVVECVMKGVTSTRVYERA

[3] = Subacute toxicity in ICR mouse assessed as changes in serum TBA level at 500 mg/kg/day, po administered for 14 days; format: organism-based; conditions: in vivo, 336 h, time 14 day
Mus musculus [4] = test: In vivo inhibition of FABP1 in western diet and CCl4-induced nonalcoholic steatohepatitis C57BL/6 mouse assessed as increase in excretion of NEFA in fecal at 20 mg/kg, po administered for 12 weeks starting from week 8 and change in dose for every 5 days; format: functional, organism-based; conditions: time 4.0 weeks
Mus musculus [5] = test: Anti-NASH activity in western diet and CCl4-induced nonalcoholic steatohepatitis C57BL/6 mouse assessed as reduction in IL-1beta level at 20 mg/kg, po administered for 12 weeks starting from week 8 and change in dose for every 5 days by ELISA; format: functional, organism-based; conditions: time 4.0 weeks
[6] = Metabolic stability in mouse liver microsomes assessed as parent compound remaining incubated for 1 hr by LC-MS analysis; format: ADME, Microsome; conditions: read-out: Stability
Bile acid receptor = target: T2, Bile acid receptor (Homo sapiens, UniProt Q96RI1); test: Agonist activity at FXR (unknown origin) expressed in human HepG2 cells co-transfected with human RXR assessed as luciferase activity incubated for 24 hrs by cell-based luciferase assay
T2 sequence (Q96RI1 whole entry): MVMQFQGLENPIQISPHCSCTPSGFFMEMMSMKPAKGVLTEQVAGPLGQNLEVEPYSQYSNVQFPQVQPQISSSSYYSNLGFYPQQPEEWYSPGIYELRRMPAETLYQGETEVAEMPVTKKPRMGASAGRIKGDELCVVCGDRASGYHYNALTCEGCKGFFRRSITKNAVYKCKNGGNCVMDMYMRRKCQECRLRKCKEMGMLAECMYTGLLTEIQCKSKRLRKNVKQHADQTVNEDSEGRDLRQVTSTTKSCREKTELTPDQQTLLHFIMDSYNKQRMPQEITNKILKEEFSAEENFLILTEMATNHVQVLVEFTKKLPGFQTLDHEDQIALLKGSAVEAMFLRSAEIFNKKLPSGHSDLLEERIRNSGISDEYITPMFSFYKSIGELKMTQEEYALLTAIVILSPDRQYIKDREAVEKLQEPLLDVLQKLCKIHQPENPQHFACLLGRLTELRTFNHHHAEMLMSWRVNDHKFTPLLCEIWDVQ

Mus musculus [7] = test: Anti-NASH activity in western diet and CCl4-induced nonalcoholic steatohepatitis C57BL/6 mouse assessed as reduction in liver weight ratio at 20 mg/kg, po administered for 12 weeks starting from week 8 and change in dose for every 5 days; format: functional, organism-based; conditions: time 4.0 weeks
[8] = Metabolic stability in Beagle dog liver microsomes assessed as parent compound remaining incubated for 1 hr by LC-MS analysis; format: ADME, Canis lupus familiaris, Microsome; conditions: read-out: Stability
[9] = target: T3, Bile acid receptor (Mus musculus) (UniProt Q60641); test: In vivo activation of FXR pathway in western diet and CCl4-induced nonalcoholic steatohepatitis C57BL/6 mouse model assessed as upregulation of FGF15 gene expression in ileum at 20 mg/kg, po administered for 12 weeks starting from week 8 and change in dose for every 5 days by RT-PCR analysis; format: functional, organism-based; conditions: time 4.0 weeks
T3 sequence (whole entry): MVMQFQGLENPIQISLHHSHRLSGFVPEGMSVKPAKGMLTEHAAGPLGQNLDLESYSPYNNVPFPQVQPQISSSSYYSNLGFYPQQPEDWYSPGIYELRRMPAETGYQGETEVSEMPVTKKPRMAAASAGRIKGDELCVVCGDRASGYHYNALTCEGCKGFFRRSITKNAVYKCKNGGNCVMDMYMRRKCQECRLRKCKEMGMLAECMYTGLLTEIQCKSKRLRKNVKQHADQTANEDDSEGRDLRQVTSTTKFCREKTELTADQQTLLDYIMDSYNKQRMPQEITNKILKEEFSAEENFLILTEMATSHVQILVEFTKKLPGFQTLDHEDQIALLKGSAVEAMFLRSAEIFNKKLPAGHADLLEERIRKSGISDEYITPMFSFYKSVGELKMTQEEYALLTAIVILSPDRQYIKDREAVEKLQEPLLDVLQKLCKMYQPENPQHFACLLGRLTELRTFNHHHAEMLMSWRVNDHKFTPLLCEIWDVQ

[10] = Metabolic stability in human liver microsomes assessed as parent compound remaining incubated for 1 hr by LC-MS analysis; format: ADME, Microsome; conditions: read-out: Stability
[11] = Subacute toxicity in ICR mouse assessed as reduction in serum TBIL level at 500 mg/kg/day, po administered for 14 days; format: organism-based; conditions: in vivo, 336 h, time 14 day
Mus musculus [12] = test: Anti-NASH activity in western diet and CCl4-induced nonalcoholic steatohepatitis C57BL/6 mouse assessed as alleviation of hepatic steatosis at 20 mg/kg, po administered for 12 weeks starting from week 8 and change in dose for every 5 days; format: functional, organism-based; conditions: time 4.0 weeks
[13] = target: T4, Fatty acid-binding protein, liver (Homo sapiens, UniProt P07148); test: Displacement of 8-anilino-1-naphthalene-sulfonic acid from FABP1 (unknown origin) incubated for 3 mins by fluorescence based assay
T4 sequence (P07148 whole entry): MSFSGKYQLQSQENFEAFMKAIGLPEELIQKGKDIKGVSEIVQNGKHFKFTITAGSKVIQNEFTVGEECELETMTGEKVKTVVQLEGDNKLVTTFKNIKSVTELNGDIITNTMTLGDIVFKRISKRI

Mus musculus [14] = test: Anti-NASH activity in western diet and CCl4-induced nonalcoholic steatohepatitis C57BL/6 mouse assessed as downregulation of IL6 expression level at 20 mg/kg, po administered for 12 weeks starting from week 8 and change in dose for every 5 days by ELISA; format: functional, organism-based; conditions: time 4.0 weeks
Mus musculus [15] = test: Anti-NASH activity in western diet and CCl4-induced nonalcoholic steatohepatitis C57BL/6 mouse assessed as downregulation of IL-1beta expression level at 20 mg/kg, po administered for 12 weeks starting from week 8 and change in dose for every 5 days by ELISA; format: functional, organism-based; conditions: time 4.0 weeks

SMILES: O=C(O)C1(c2cccc(-c3ccc(OCc4c(-c5c(Cl)cccc5Cl)noc4C4CC4)cc3)c2)CC1
- pEC50 [1]: < 5.00
- pIC50 [2]: 5.20
- Activity [3]: Non-Toxic
- Activity (Mus musculus [4]): Active
- Activity (Mus musculus [5]): Active
- remaining at 1 h [6]: 64.3%
- pEC50 (Bile acid receptor): 6.31
- Activity (Mus musculus [7]): Active
- remaining at 1 h [8]: 57.4%
- Activity [9]: Active
- remaining at 1 h [10]: 71.6%
- Activity [11]: Non-Toxic
- Activity (Mus musculus [12]): Active
- pIC50 [13]: 5.57
- Activity (Mus musculus [14]): Active
- Activity (Mus musculus [15]): Active
